According to PubChem BioAssay AID1259371 (The Scripps Research Institute Molecular Screening Center, 2018):
Activity calls are given as the source filed them. No rule for the calls is given here.

Biological target: Microphthalmia-associated transcription factor (Homo sapiens) (UniProt O75030)
Assay: MITF inhibitors, potency by titration, dose response, biochemical, AlphaScreen, human (AID 1259371)
Conditions: AlphaScreen biochemical MITF assay, signal inhibition

Microphthalmia-associated transcription factor (Homo sapiens), sequence (O75030 whole entry, looked up): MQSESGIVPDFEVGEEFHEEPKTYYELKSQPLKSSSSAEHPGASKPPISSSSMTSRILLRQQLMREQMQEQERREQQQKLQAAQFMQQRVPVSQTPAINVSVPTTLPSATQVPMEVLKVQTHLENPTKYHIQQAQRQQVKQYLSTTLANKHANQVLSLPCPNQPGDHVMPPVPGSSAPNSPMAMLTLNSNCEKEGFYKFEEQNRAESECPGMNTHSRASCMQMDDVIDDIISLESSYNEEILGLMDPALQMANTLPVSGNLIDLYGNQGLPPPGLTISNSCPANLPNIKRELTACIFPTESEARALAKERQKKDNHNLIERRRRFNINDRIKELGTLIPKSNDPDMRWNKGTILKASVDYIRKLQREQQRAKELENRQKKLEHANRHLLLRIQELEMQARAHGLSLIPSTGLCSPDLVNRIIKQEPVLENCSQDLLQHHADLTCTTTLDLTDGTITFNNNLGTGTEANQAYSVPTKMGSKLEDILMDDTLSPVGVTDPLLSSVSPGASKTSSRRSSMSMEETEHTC

Row | Compound | IC50
1 | CCOC1=CC(c2ccc3c(c2)OCO3)CC(=O)c2c(C)oc(C)c21 (stereo not drawn) | > 6480 nM (inactive)
2 | CCS(=O)(=O)NCC(c1cccs1)S(=O)(=O)c1ccc(C)cc1 (stereo not drawn) | 804 nM
3 | NS(=O)(=O)c1ccc(N=Cc2cc3c(cc2[N+](=O)[O-])OCO3)cc1 | inactive
4 | O=C1c2ccc([N+](=O)[O-])cc2C(=O)N1c1cc(Br)c(O)c(Br)c1 | 162 nM
5 | NC(=O)COC(=O)c1cc2c(s1)CCC2 | inactive
6 | CC1=NC(=S)C2C(=O)O/C(=C/c3ccc(-c4cccc([N+](=O)[O-])c4)o3)C2=C1 (stereo not drawn) | inactive
7 | CC[C@H](C)[C@@H]1NC(=O)[C@H]2CN(C(=O)NCc3ccccc3)CCN2C1=O | inactive
8 | COc1ccc(S(=O)(=O)N2CCN(Cc3ccccc3[N+](=O)[O-])CC2)cc1 | > 4330 nM (inactive)
9 | NC(=O)n1c(CCC(=O)O)nc2sc3c(c2c1=O)CCC3 | 211 nM
10 | c1ccc2c(c1)OCC(c1nc3c(-c4ccncc4)cncc3[nH]1)O2 (stereo not drawn) | > 2160 nM (inactive)
11 | COc1cccc(CN2CCC(CNc3ccc(-c4ccncc4)cc3)C2)c1 (stereo not drawn) | 285 nM
12 | NC(=O)c1ccccc1NC(=S)NC(=O)/C=C/c1ccco1 | 471 nM
13 | CC(C)[C@@H]1NC(=O)[C@H]2CN(C(=O)NC3CCCCC3)CCN2C1=O | > 2160 nM (inactive)
14 | Cn1nnc(-c2ccc(Nc3nccc(-c4ccc5nc(C6CC6)[nH]c(=O)c5c4)n3)cc2)n1 | inactive
15 | COc1ccc(CN2CCN(Cc3ccccc3OC)CC2)cc1 | > 7330 nM (inactive)
16 | Cc1ccc(NC(=O)COC(=O)CCC(=O)Nc2sc3c(c2C(N)=O)CCC3)cc1F | inactive
17 | Cc1nc(C)n(-c2ccc(Nc3cc(-n4cc(N(c5cccnc5)c5cccnc5)cn4)ccn3)cc2)n1 | 864 nM
18 | NC(=O)CSc1ccc(C(N)=O)cc1[N+](=O)[O-] | inactive
19 | CCN1CCc2c(sc(NC(=S)NC(=O)/C=C/c3ccco3)c2C(N)=O)C1 | 726 nM
20 | COc1ccc(CCNC(=O)CN2CCN(Cc3nc(-c4ccco4)cs3)CC2)cc1OC | inactive
21 | Clc1ccc2c(c1)CC(c1nc(Nc3cncnc3)c3ccccc3n1)CO2 (stereo not drawn) | inactive
22 | O=C(OC1(C(F)(F)F)C(=O)Nc2cc3c(cc21)OCO3)c1ccc(Cl)nc1 (stereo not drawn) | 179 nM
23 | Nc1cccc(N2C(=O)c3cc(S(=O)O)cc4c(N)c(S(=O)O)cc(c34)C2=O)c1 | inactive
24 | O=C(OCCCC(=O)N1CCOCC1)c1cc(-c2ccco2)nc2ccccc12 | inactive
25 | O=C(Nc1ccc(Cl)cc1Cl)N1CCN2C(=O)[C@@H]3CSCN3C(=O)[C@H]2C1 | inactive
26 | CCOC(=O)C1C2NC(=S)N(c3cccc(Cl)c3)C1(C)Oc1c(OC)cccc12 (stereo not drawn) | > 5090 nM (inactive)
27 | O=C(NCc1ccccc1)N1CCN2C(=O)[C@@H]3CSCN3C(=O)[C@H]2C1 | inactive
28 | CC(C)[C@@H]1NC(=O)[C@H]2CN(C(=O)NCc3ccccc3)CCN2C1=O | 819 nM
